US9815854B2, “3-(3H-imidazo[4,5-B]pyridin-2-yl)-1H-pyrazolo[3,4-C]pyridine and therapeutic uses thereof” (Samumed, LLC, priority 2014, dated 2017)

Legend:
[1] = system: Wnt activity (Sp5-Luc reporter, TCF/LEF binding sites) in SW480 colon carcinoma cells; experiment: Sp5-Luc Wnt reporter gene screening assay in SW480 colon carcinoma cells; assay type: cell-based, human; conditions: Homo sapiens
Outline: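 SW480 cells stably transduced with a lentiviral luciferase reporter driven by a Sp5 promoter with eight TCF/LEF sites were plated at 10,000/well in 10% FCS medium. Luminescence was normalised to DMSO and IC50 derived by four-parameter fit.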

[2] = system: primary human fibroblasts derived from IPF patients (LL29 cells); experiment: Inhibition of the fibrotic process in TGF-β1-treated primary human fibroblasts from IPF patients (αSMA staining); assay type: cell-based; conditions: Fibroblast, 96 h, TGF-β1 20 ng/mL, 4 days, read-out: Inhibition of fibrosis EC50
Outline: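 IPF-derived LL29 lung fibroblasts, 1,500 per well in F12 with 1% FBS, treated with compound (10 μM to […], 0.1% DMSO) and TGF-β1 20 ng/mL for 4 days at 37 °C. αSMA-positive live cells imaged and normalised to TGF-β1 controls; EC50 by nonlinear regression over triplicate wells.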

[3] = system: primary human mesenchymal stem cells (hMSCs); experiment: Chondrogenesis induction screen in primary human mesenchymal stem cells (nodule imaging, Rhodamine B/Nile Red); assay type: cell-based; conditions: 6 days; for EC (100% of TGF-b3 activity): Homo sapiens, Mesenchymal stem cells, 144 h, concentration required to induce chondrogenesis equivalent to TGF-β3 (10 ng/mL), read-out: Conc (nM) of 100% TGF-β3 activity; for Max. Activity as % TGF-β3 activity: TGF-β3 (10 ng/mL) positive control
Experimental: The above synthesized compounds were screened using primary human mesenchymal stem cells (hMSCs) to determine their ability to induce chondrogenesis (process by which cartilage is developed).
Human Mesenchymal Stern Cell Culture: Primary human mesenchymal stem cells (hMSCs) were purchased from Lonza (Walkersville, Md.) and expanded in Mesenchymal Stem Cell Growth Media (Lonza). Cells between passage 3 and 6 were used for the experiments.
Compound Screening: Each compound was dissolved in DMSO as a 10 mM stock and used to prepare compound source plates. Serial dilution (1:3, 6-point dose-response curves from 2700 nM to 10 nM) and compound transfer was performed using the ECHO 550 (Labcyte, Sunnyvale, Calif.) into 96-well clear bottom assay plates (Greiner Bio-One) with appropriate DMSO backfill for a final DMSO concentration of 0.03%. hMSCs were plated at 20,000 cells/well in 250 μL/well incomplete Chondrogenic induction Medium (Lonza; DMEM, dexamethasone, ascorbate, insulin-transferrin-selenium [ITS supplement], gentamycin-amphotericin [GA-1000], sodium pyruvate, proline and L-glutamine). TGF-β3 (10 ng/mL) was used as a positive control for differentiation while negative control wells were treated with 75 nL DMSO for normalization and calculating EC50 values. Cells were incubated at 37° C. and 5% CO2 for 6 days. To image chondrogenic nodules, the cells were fixed using 4% formaldehyde (Electron Microscopy Sciences), and stained with 2 μg/mL Rhodamine B (Sigma-Aldrich) and 20 μM Nile Red (Sigma-Aldrich) [Johnson K., et.al, A Stem Cell-Based Approach to Cartilage Repair, Science, (2012), 336(6082), 717-721]. The nodules imaged (4 images per well at 4× magnification) by excitation at 531 nm and emission at 625 nm and quantified using the CellInsight CX5 (Thermo Scientific). Number of nodules in each well was normalized to the average of 3 DMSO treated wells on the same plate using Excel (Microsoft Inc.). The normalized averages (fold change over DMSO) of 3 replicate wells for each compound concentration were calculated. Due to solubility limitations of some of the compounds, curve fitting was incomplete leading to inaccurate EC50 determinations.
Using TGF-β3 as a positive control, the concentration of test compounds required to induce equivalent levels of chondrogenesis is reported. In addition, the maximum activity of each compound and the respective dose that each compound reached maximum chondrogenesis activity is reported.

Structure (SMILES) | IC50 [1] | EC50 [2] | EC (100% of TGF-b3 activity) [3] | Max. Activity as % TGF-β3 activity [3]
Fc1cccc(-c2ccnc3[nH]c(-c4n[nH]c5cnc(-c6cncc(CN7CCC(F)(F)C7)c6)cc45)nc23)c1 [Compound 25, 5-(5-((3,3-Difluoropyrrolidin-1-yl)methyl)pyridin-3-yl)-3-(7-(3-fluorophenyl)-3H-imidazo[4,5-b]pyridin-2-yl)-1H-pyrazolo[3,4-c]pyridine] | 22.1 nM | 20 nM | 112 nM | 
CC(C)Nc1cncc(-c2cc3c(-c4nc5c(-c6ccc(F)cc6)ccnc5[nH]4)n[nH]c3cn2)c1 [Compound 38, 5-(3-(7-(4-Fluorophenyl)-3H-imidazo[4,5-b]pyridin-2-yl)-1H-pyrazolo[3,4-c]pyridin-5-yl)-N-isopropylpyridin-3-amine] | 10.3 nM | 34 nM | 74.9 nM | 300%
CC(C)(C)CC(=O)Nc1cncc(-c2cc3c(-c4nc5c(-c6ccccc6F)ccnc5[nH]4)n[nH]c3cn2)c1 [Compound 68, N-(5-(3-(7-(2-Fluorophenyl)-3H-imidazo[4,5-b]pyridin-2-yl)-1H-pyrazolo[3,4-c]pyridin-5-yl)pyridin-3-yl)-3,3-dimethylbutanamide] | 24.4 nM | 90 nM | 9.3 nM | 
FC1(F)CCN(Cc2cncc(-c3cc4c(-c5nc6c(N7CCCCC7)ccnc6[nH]5)n[nH]c4cn3)c2)C1 [Compound 181, 5-(5-((3,3-Difluoropyrrolidin-1-yl)methyl)pyridin-3-yl)-3-(7-(piperidin-1-yl)-3H-imidazo[4,5-b]pyridin-2-yl)-1H-pyrazolo[3,4-c]pyridine] | 16.7 nM | 53 nM | 25.6 nM | 
c1cncc(-c2cc3c(-c4nc5cccnc5[nH]4)n[nH]c3cn2)c1 [Compound 238] | 16.1 nM | 369 nM | 113 nM | 30%
CC(C)(C)C(=O)Nc1cncc(-c2cc3c(-c4nc5c(-c6ccsc6)ccnc5[nH]4)n[nH]c3cn2)c1 [Compound 268, N-(5-(3-(7-(Thiophen-3-yl)-3H-imidazo[4,5-b]pyridin-2-yl)-1H-pyrazolo[3,4-c]pyridin-5-yl)pyridin-3-yl)pivalamide] | 9.7 nM | 141 nM | 25.8 nM | 
CCCC(=O)Nc1cncc(-c2cc3c(-c4nc5c(-c6cccs6)ccnc5[nH]4)n[nH]c3cn2)c1 [Compound 329, N-(5-(3-(7-(Thiophen-2-yl)-3H-imidazo[4,5-b]pyridin-2-yl)-pyrazolo[3,4-c]pyridin-5-yl)pyridin-3-yl)butyramide] | 17.5 nM | 34 nM | 110 nM | 300%
CCCC(=O)Nc1cncc(-c2cc3c(-c4nc5c(-c6ccc(C)s6)ccnc5[nH]4)n[nH]c3cn2)c1 [Compound 381, N-(5-(3-(7-(5-Methylthiophen-2-yl)-3H-imidazo[4,5-b]pyridin-2-yl)-1H-pyrazolo[3,4-c]pyridin-5-yl)pyridin-3-yl)butyramide] | 9.5 nM | 18 nM | 59.6 nM | 
Cc1ccncc1-c1cc2c(-c3nc4c(-c5cc(F)cc(CNS(C)(=O)=O)c5)ccnc4[nH]3)n[nH]c2cn1 [Compound 421, N-(3-Fluoro-5-(2-(5-(4-methylpyridin-3-yl)-1H-pyrazolo[3,4-c]pyridin-3-yl)-3H-imidazo[4,5-b]pyridin-7-yl)benzyl)methanesulfonamide] | 23.3 nM |  | 70 nM | 30%
O=C(CC1CCNCC1)Nc1cncc(-c2cc3c(-c4nc5c(-c6cccc(F)c6)ccnc5[nH]4)n[nH]c3cn2)c1 [Compound 945] | 463 nM | 40 nM | 54.7 nM | 
COc1cncc(-c2cc3c(-c4nc5c(-c6cccc(F)c6)ccnc5[nH]4)n[nH]c3cn2)c1 [Compound 948, 3-(7-(3-Fluorophenyl)-3H-imidazo[4,5-b]pyridin-2-yl)-5-(5-methoxypyridin-3-yl)-1H-pyrazolo[3,4-c]pyridine] | 850 nM | 632 nM |  | 
Oc1cncc(-c2cc3c(-c4nc5c(-c6cccc(F)c6)ccnc5[nH]4)n[nH]c3cn2)c1 [Compound 949, 5-(3-(7-(3-Fluorophenyl)-3H-imidazo[4,5-b]pyridin-2-yl)-1H-pyrazolo[3,4-c]pyridin-5-yl)pyridin-3-ol] | 111 nM | 31 nM | 143 nM | 100%
Fc1cccc(-c2ccnc3[nH]c(-c4n[nH]c5cnc(-c6cnccn6)cc45)nc23)c1 [Compound 954, 3-(7-(3-Fluorophenyl)-3H-imidazo[4,5-b]pyridin-2-yl)-5-(pyrazin-2-yl)-1 H-pyrazolo[3,4-c]pyridine] | 661 nM | ≥ 9990 nM |  | 
COc1cc(F)cc(-c2ccnc3[nH]c(-c4n[nH]c5cnc(-c6cncc(NC(=O)CC(C)C)c6)cc45)nc23)c1 [Compound 1394, N-(5-(3-(7-(3-Fluoro-5-methoxyphenyl)-3H-imidazo[4,5-b]pyridin-2-yl)-1H-pyrazolo[3,4-c]pyridin-5-yl)pyridin-3-yl)-3-methyl butanamide] | > 10000 nM | 495 nM |  | 
